Assay results: US20230003721A1, “MITOTHERAPEUTICS FOR THE TREATMENT OF BRAIN DISORDERS” (The University of Florida Research Foundation, Inc., priority 2019, published 2023)
Structures can show the parent of a compound that is named as a salt. Where two headings read alike, the source gives them in different places.

Test system: primary forebrain neurons
Test: cells
Conditions: for EC50: Mus musculus, Neuron; for confirmation in the re-screen: 10 replicate plates
Procedure: Primary forebrain cell culture and maintenance. Forebrains of P0 Mt or Mt/Ai14 pups without olfactory bulbs and meninges were collected and placed in ice cold Ca^2+ and Mg^2+ free HBSS supplemented with 2 μg/ml gentamicin, 25 mM D-glucose, 1 mM pyruvate and 20 mM HEPES. Brain tissue was digested with 0.6 mg/ml papain at 37° C. for 20 min. Forebrains were washed with plating media [Neurobasal (Gibco), 5% FBS, 4 mM GlutaMAX (Gibco), 2 μg/ml gentamicin]. The tissue was gently triturated, allowed to settle and the supernatant was filtered through a 40 μm mesh-sized cell strainer. Cells were centrifuged at 420×g for 4 min and resuspended in plating media. 15,000 cells per well were plated with 2×10^8 viral particles/ml onto black Greiner μClear (Cat #781946) or Ultra-Low Base Aurora with evaporation barrier (Cat #ABE201201B) 384-well plates (80 μl/well) pre-coated with poly-D-lysine for the primary screen and rescreen, respectively. Plating and media changes were performed using an automated Biomek FX^P liquid handling workstation. Four hr after plating, 75% of the plating media was replaced by feeding media [Neurobasal-A (Gibco), 4 mM GlutaMAX (Gibco), 2 μg/ml gentamicin, 2% B27 (Gibco)]. At DIV4, 50% of the media was exchanged with fresh feeding media supplemented with 16 μM 5-Fluoro-2′-deoxyuridine (FUdR) to prevent glial cell over-growth. At DIV8 and DIV12, additional 50% media changes were made without FUdR. Cells were maintained at 37° C. and 5% CO2; plates were topped with Breathe-Easy adhesive membranes (Greiner plates) to minimize evaporation.
Compounds and compound transfer.
Imaging. Images were captured using a GE Incell 6000 system (60× objective, 0.95 NA, 16-bit images) equipped with environmental control (37° C., 5% CO2). Mt-GFP (green channel) was imaged by confocal imaging (3 slices, Δz=0.7 μm, aperture=1.0 AU, λexc=488 nm, λem=515-535 nm). Cyto-tdTomato (red channel) and MitoTracker Orange (red channel) were imaged using confocal mode (3 slices, Δz=0.7 μm, aperture=1.0 AU, λexc=561 nm, λem=569-641 nm, MitoTracker Orange) or with widefield mode (Cyto-tdTomato). TMRM imaged for the co-localization experiments with Mt-GFP was imaged using the confocal mode (3 slices, […] aperture=1.0, λexc=488, λem=569-641 nm). For the live-dead assay, primary neurons were imaged with a 20× (widefield mode, NA 0.45) objective using λexc=561 nm and λem=569-641 nm for the propidium iodide stained dead cells (red channel), and λexc=488 nm and λem=515-535 nm for the fluorescein diacetate stained live cells (green channel). 10 fields were collected from each well, and 4 wells were imaged/condition in the live-dead assay. For all other experiments, 4 fields/well were imaged unless otherwise stated.
Automated data analysis pipeline. Most experiments utilized only Mt-GFP; some utilized both Mt-GFP and Cyto-tdTomato. The Z-projected images were preprocessed using a custom Fiji macro. For preprocessing of Mt-GFP images: background was subtracted (rolling ball, radius=3), images were median filtered (radius=1) and somatic mitochondria were removed. For removal of the somatic mitochondria, they were first segmented and then a somatic mitochondrial mask overlaid on the image.

[1] = rescreen, 12.5 μM, 24 h, vs DMSO wells
[2] = 24 h, read-out: Elongation (Dend Mt length) EC50
[3] = 24 h, read-out: Health (Ax Mt Circularity) EC50
[4] = 24 h, read-out: Sprouting (Neurite Area) EC50
[5] = 24 h, read-out: Mt Content (Dend Mt CA) EC50

| Compound | Dendritic Mt CA [1] | Neurite Area [1] | also measured |
| --- | --- | --- | --- |
| CC[C@H]1CN2CC[C@H]1C[C@@H]2[C@@H](O)c1ccnc2ccc(OC)cc12 [HYDROQUINIDINE] | 2.19 robust Z-scores | −0.15 robust Z-scores | – |
| C#CCN(C)Cc1ccccc1 [PARGYLINE HYDROCHLORIDE] | 3.75 robust Z-scores | 2.51 robust Z-scores | – |
| Nc1nnc(-c2cccc(Cl)c2Cl)c(N)n1 [LAMOTRIGINE] | 4.75 robust Z-scores | 1.00 robust Z-scores | – |
| COc1ccc2c(c1)[nH]c1c(C)nccc12 [HARMINE] | 3.65 robust Z-scores | −1.63 robust Z-scores | EC50 [2]: 1.7 µM; EC50 [3]: > 25 µM; EC50 [4]: > 25 µM |
| CN1CCc2cccc3c2[C@H]1Cc1ccc(O)c(O)c1-3 [APOMORPHINE HYDROCHLORIDE] | 2.10 robust Z-scores | −0.07 robust Z-scores | – |
| COc1ccc2c(c1O)-c1c(OC)c(OC)cc3c1[C@H](C2)N(C)CC3 [S-ISOCORYDINE (+)] | 2.82 robust Z-scores | 0.78 robust Z-scores | – |
| CC1=C(/C=C/C(C)=C/C=C/C(C)=C\C(=O)O)C(C)(C)CCC1 [ISOTRETINON] | 2.69 robust Z-scores | 0.77 robust Z-scores | – |
| CC(C)CCC[C@@H](C)[C@H]1CC[C@H]2[C@@H]3CC=C4CC(=O)CC[C@]4(C)[C@H]3CC[C@]12C [CHOLEST-5-EN-3-ONE] | 2.78 robust Z-scores | −0.65 robust Z-scores | – |
| COc1ccccc1-c1coc2cc(O)ccc2c1=O [7-HYDROXY-2′-METHOXYISOFLAVONE] | – | – | EC50 [3]: 0.2 µM; EC50 [5]: > 25 µM |
| C#CCN(C)CCCOc1ccc(Cl)cc1Cl [CLORGILINE HYDROCHLORIDE] | 4.33 robust Z-scores | −0.36 robust Z-scores | EC50 [2]: 5 µM; EC50 [3]: 0.3 µM; EC50 [5]: 1 µM; EC50 [4]: > 25 µM |
| O=C(CCc1ccc(O)cc1)c1c(O)cc(O)cc1O [PHLORETIN] | 2.73 robust Z-scores | 1.23 robust Z-scores | – |
| O=C(/C=C/c1ccccc1)c1ccc(O[C@@H]2O[C@H](CO)[C@@H](O)[C@H](O)[C@H]2O)cc1O [2′,4′-DIHYDROXYCHALCONE 4′-GLUCOSIDE] | 4.44 robust Z-scores | −0.18 robust Z-scores | – |
| CCCCCOC(=O)Nc1nc(=O)n([C@@H]2O[C@H](C)[C@@H](O)[C@H]2O)cc1F [CAPECITABINE] | 2.88 robust Z-scores | 0.58 robust Z-scores | – |
| COc1cc(OC)c2c(c1)O[C@H](c1ccc(OC)c(OC)c1)[C@@H](O)C2 | 2.44 robust Z-scores | 1.87 robust Z-scores | – |
| O=c1cc(-c2ccccc2)oc2ccc(O)cc12 [6-HYDROXYFLAVONE] | 2.88 robust Z-scores | 0.69 robust Z-scores | – |
| Cc1cccc(N(C)C(=S)Oc2ccc3ccccc3c2)c1 [TOLNAFTATE] | 2.93 robust Z-scores | 1.01 robust Z-scores | – |
| COc1ccc(CN(CCN(C)C)c2ccccn2)cc1 [PYRILAMINE MALEATE] | 2.65 robust Z-scores | 0.78 robust Z-scores | – |

| Compound | Dendritic Mt CA [1] | Neurite Area [1] | also measured |
| --- | --- | --- | --- |
| CN1CCOC(c2ccccc2)c2ccccc2C1 (centres unmarked) [NEFOPAM] | 3.74 robust Z-scores | −0.44 robust Z-scores | – |
| CNC(=O)Oc1cccc2ccccc12 [CARBARIL] | 2.03 robust Z-scores | −0.48 robust Z-scores | – |
| CCCC1O[C@@H]2C[C@H]3[C@@H]4CCC5=CC(=O)C=C[C@]5(C)[C@H]4[C@@H](O)C[C@]3(C)[C@]2(C(=O)CO)O1 (some centres unmarked) [BUDESONIDE] | 2.16 robust Z-scores | −0.61 robust Z-scores | – |
| FC(F)(F)C(Cl)Br (centres unmarked) [HALOTHANE] | – | – | Dendritic Mt CA: 2.60 robust Z-scores; Neurite Area: 2.65 robust Z-scores |
| CC12CC3CC(C)(C1)CC(N)(C3)C2 [MEMANTINE HYDROCHLORIDE] | 3.25 robust Z-scores | 1.45 robust Z-scores | confirmation in the re-screen (12.5 μM): weak hits |
| O=C(O[C@H]1CN2CCC1CC2)N1CCc2ccccc2[C@@H]1c1ccccc1 [SOLIFENACIN SUCCINATE] | 5.06 robust Z-scores | 1.42 robust Z-scores | – |
| AVOCATIN A | 4.14 robust Z-scores | 3.48 robust Z-scores | – |
| Cc1cccc(C)c1N=C1NCCCS1 [XYLAZINE] | 3.66 robust Z-scores | 0.40 robust Z-scores | – |
| O=c1c(O)c(-c2ccccc2)oc2cccc(O)c12 [3,5-DIHYDROXYFLAVONE] | 3.43 robust Z-scores | 1.20 robust Z-scores | – |
| O=C(CCCN1CCC(O)(c2ccc(Cl)cc2)CC1)c1ccc(F)cc1 [HALOPERIDOL] | 2.99 robust Z-scores | −2.37 robust Z-scores | – |
| CC[C@@]1(O)C(=O)OCc2c1cc1n(c2=O)Cc2cc3cc(O)ccc3nc2-1 [10-HYDROXYCAMPTOTHECIN] | 2.23 robust Z-scores | 2.29 robust Z-scores | – |
| O=c1c(O)c(-c2ccccc2)oc2cc(O)ccc12 [3,7-DIHYDROXYFLAVONE] | 2.78 robust Z-scores | 1.37 robust Z-scores | – |
| COc1ccc(/C=C/c2cc(O)cc(O)c2)cc1 [RESVERATROL 4′-METHYL ETHER] | 3.68 robust Z-scores | 0.02 robust Z-scores | confirmation in the re-screen (12.5 μM): weak hits |
| C=C(C)c1cc2cc(C(C)=O)c(O)cc2o1 [EUPARIN] | 4.22 robust Z-scores | 1.17 robust Z-scores | – |
| O=C(/C=C/c1ccc(O)cc1)c1ccccc1O [2′,4-DIHYDROXYCHALCONE] | 2.57 robust Z-scores | 0.01 robust Z-scores | – |
| C[C@@H](N)[C@@H](O)c1ccccc1 [1R,2S-PHENYLPROPYLAMINE] | 3.14 robust Z-scores | 1.25 robust Z-scores | – |
| COc1ccc2c(c1)[C@]13CCCC[C@@H]1[C@H](C2)N(C)CC3 [DEXTROMETHORPHAN HYDROBROMIDE] | – | – | Dendritic Mt CA: 2.38 robust Z-scores; Neurite Area: 0.21 robust Z-scores |
